# Test results published in patent US10799598B2, “Disulfide bridging conjugates” (Sorrento Therapeutics, Inc., priority 2017, dated 2020).
# Assays:
# [1] = tested on: LNCaP (PSMA+) prostate cancer cells; test: Luminescence cytotoxicity assay, absence of effector cells, LNCaP; assay type: cell-based; details: LNCaP (PSMA present), up to 20 nM, 4 days incubation
# Protocol: (§1) Firefly luciferase transduced prostate cancer target cell lines were used for cytotoxicity assays, LNCaP (ATCC® CRL-1740™), PSMA+(cultured in RPMI-1640+10% non-heat-inactivated FBS+0.5 μg/mL Puromycin) and PC-3 (ATCC® CRL-1435™), PSMA-(cultured in RPMI-1640+10% heat-inactivated FBS+1.0 μg/mL Puromycin). Cells were harvested with TrypLE (ThermoFisher Scientific) then resuspended in fresh RPMI-1640+10% heat-inactivated FBS and plated at 4,000 cells/well in 100 μL. After overnight incubation at 37° C. in a humidified 5% CO2 incubator, serial dilutions of proteins in RPMI-1640+10% heat-inactivated medium (50 μL) were added to the assay plates at the indicated concentrations. In experiments utilizing effector cells, freshly thawed peripheral blood mononuclear cells (PBMCs) were washed with media and added to the assay plates at 40,000 cells in 50 μL to obtain an effector:target ratio of 10:1. After 4 days incubation, 90 μL was removed from assay plates and 90 μL ONE Glo Luciferase Assay Reagent (Promega # E6120) was mixed with the samples and incubated at room temperature for 10 min. Samples were transferred to white 96-well flat bottom plates for luminescence measurements using a PerkinElmer EnSpire multimode plate reader. Data was analyzed using GraphPad Prism software.
# [2] = tested on: PC-3 (PSMA-) prostate cancer cells; test: Luminescence cytotoxicity assay, absence of effector cells, PC-3; assay type: cell-based; details: PC-3 (PSMA absent), up to 20 nM, 4 days incubation
# Protocol: as §1
smiles,measurement,setting,value
"O=C(O)CCC(NC(=O)NC(CCC(=O)O)C(=O)O)C(=O)O (centres unmarked) [DUPA small molecule, 2-[3-(1,3-dicarboxypropyl)ureido]pentanedioic acid]",dose-dependent cell killing activity,[1],No dose-dependent cell killing activity was observed
same,dose-dependent cell killing activity,[2],No dose-dependent cell killing activity was observed
